Results: patent publication US8741357B2, “Cosmetic or dermopharmaceutical composition comprising an euglena extract” (Sederma SAS, priority 2005, dated 2014)

System: Human keratinocytes
Experiment: de novo IP3 synthesis in KHN cells (RIA)
Format: cell-based
Method: The IP3 produced by the cell is extracted with perchloric acid and assay is conducted by a RIA method based on competition for a specific IP3 binding protein between radioactive IP3 and cell extract IP3. The intracellular IP3 is assayed after stimulation with the extract of Euglena, vs.control. The positive control consists in Platelet-Activating Factor (PAF).
Human keratinocytes were cultured and incubated to 90% confluence. The cells were incubated in the presence of extract of euglena at various concentrations or the control for 1 minute.

Platelet-Activating Factor [PAF]
IP3 (positive control, mean of n = 3): 17.48 pmol/mL | Variation of IP3 (positive control, relative to control): 515 | IP3 production, result in words (vs control): stimulated IP3 production
